Data from a melting point compilation (Tetko et al.; mined from patent text by program, amines drawn as free bases though some values may be those of a salt).

| Structure (SMILES) | melting point [°C] |
| --- | --- |
| COc1cc2c(cc1Nc1ncc(Cl)c(Nc3ccc(N4CCOCC4)cc3OC)n1)CCN(C[C@H](O)C(F)(F)F)CC2 | 95 to 102 |
| CC(=O)OCCCN(C)CCN(C)C(=O)[C@@H]1CCCN1S(=O)(=O)c1ccc(Cl)c(COc2cccc3c(-n4ccnc4)cc(C)nc23)c1Cl | 75 |
| Cc1cc(Cl)cc(C(=O)C(=O)O)c1NC(=O)c1cc(Br)nn1-c1ncccc1Cl | 139 to 142 |
| CC(O)c1ccc(N)c(S(N)(=O)=O)c1 (stereo not drawn) | 160 to 162 |
| COc1cc2ccc(CC(=S)N3CCOCC3)cc2c(C)c1OC | 100 to 103 |
| CCCCc1nn(-c2cc(N)ccc2Cl)c(=O)n1Cc1ccc(-c2ccccc2S(=O)(=O)NC(=O)OC(C)(C)C)cc1F | 208 to 210 |
| CCN(CCCCCN(CCCCCN(CC)S(=O)(=O)c1c(C)cc(C)cc1C)S(=O)(=O)c1c(C)cc(C)cc1C)S(=O)(=O)c1c(C)cc(C)cc1C | 60 to 62 |
| N[C@@]1(C(=O)O)C[C@H](NC(=O)Nc2ccc(Cl)cc2)[C@H]2[C@H](C(=O)O)[C@H]21 (relative stereo) | > 250 |
| CCOC(=O)NNc1ccc(-c2ccc(C#N)cc2)nn1 | 235 |
| Cc1cc(=O)oc2nn(Cc3cccnc3)c(C)c12 | 191 to 193 |
| CN1CCC(=C2c3cc(C=O)n(C)c3CCn3ncnc32)CC1 | 204 |
| CC=CC(=O)C1C(C)CCCC1(C)C (stereo not drawn) | 8 to 9 |
| CCCCCCCCC(=O)N(C)Cc1ccc(C(=O)O)cc1 | 79.5 to 81 |
| COc1cc(OC)c([C@@H]2CCCC[C@H]2O)c(O)c1C(C)=O (relative stereo) | 162 to 164 |
| C/C(=C(\C#N)C(N)=S)N1CCCCC1 | 161 to 166 |
| CCCN1CCCC2c3nc(N)sc3CCC21 (stereo not drawn) | 163 to 181 |
| Cc1ccc(I)c(I)c1C | 175 to 178 |
| CSc1nc(-c2cc(N)ccc2C)c2c(n1)N(c1c(F)cccc1F)C(=O)NC2 | 122 to 125 |
| CC(C)(C)c1cc(C=C(C#N)C#N)cc(I)c1O | 188 |

Second part, the molecule after the results:

| melting point [°C] | Structure (SMILES) |
| --- | --- |
| 115 | CN1CCC(OC(c2ccccc2)c2nc3ccccc3s2)CC1 (stereo not drawn) |
| 98 to 101 | CC(C)c1ccc(C(=O)c2ccc(CC(=O)O)n2C)cc1 |
| 102 to 105 | CCCc1c(OCCCOC2CC(CC(=O)O)Oc3ccccc32)ccc(C(C)=O)c1O (stereo not drawn) |
| 157 to 158 | CCOC(=O)c1cc2cccc(NC(=O)c3cc(OCc4ccccc4F)cc(OCc4ccccc4F)c3)c2[nH]1 |
| 241 to 243 | COc1ccc2c(c1)c1c3c(c(-c4ccccc4)cc1n2CCCO)C(=O)NC3=O |
| 178 to 179 | O=C(O)c1ccc(Cn2ncc3ccccc32)cc1 |
| 248 to 250 | CC1CC(=O)N(Cc2ccccc2)c2ccccc2N1C(=O)CN1C(=O)c2ccccc2C1=O (stereo not drawn) |
| 73 | CC1CCCC(C)(C)C1CS(=O)(=O)c1ccccc1 (stereo not drawn) |
| > 250 | NC(=O)c1nc(-c2ccccc2)c(-c2ccc(=O)[nH]n2)s1 |
| 203 to 205 | O=C1CCC(N2Cc3c(OCc4ccc(Cc5nc6ccccc6[nH]5)cc4)cccc3C2=O)C(=O)N1 (stereo not drawn) |
| 171 to 174 | c1ccc2c(c1)CC1(c3c[nH]cn3)CCCC21 (stereo not drawn) |
| 120 to 123 | O=C(NO)c1ccc2c(c1)CCN(C(=O)NCCOc1ccccc1)C2 |
| 167 to 168 | CCCN(CCC)C(=O)CNc1nc(-c2ccccc2)ncc1CO |
| 78 to 90 | Cc1cccc(-c2nc(C(C)C)[nH]c2-c2ccc(F)c(-c3ccco3)c2)n1 |
| 119 to 121 | COc1ccccc1N1CCN(CCN(C(=O)C2CCCCC2)c2ccccc2[N+](=O)[O-])CC1 |
| 207 to 210 | O=C(Nc1cc(C(F)(F)F)c[nH]c1=O)c1ccccc1 |
| 285 to 287 | O=c1[nH]c(-c2ccc(CCN3CCN(c4cccc(C(F)(F)F)c4)CC3)cc2)cs1 |
| 85 to 86 | CN(C)CC1CCc2cc(OC(=O)c3ccc(-c4ccccc4)cc3)ccc2C1 (stereo not drawn) |
| 142 to 143 | CC1(C)CCC(O)(CCN2C(=O)CSC2CCCc2ccc(C(=O)O)cc2)CC1 (stereo not drawn) |
